Assay results from article PMC10175918 (Communications Biology, 2023).
Where two headings read alike, the source gives them in different places.

How the values were obtained:
Experiment in all cases: TGFα-shedding assay-based GPCR screening with chimeric Gα subunit proteins
Format in all cases: cell-based
348 GPCRs [1] = biological target: T1, 348 GPCRs (Homo sapiens, UniProt Q9ULV1); details: 10µM, Favipiravir 100μM
T1 construct: expressed in transfected cells; host or cells: HEK293A
T1 sequence (Q9ULV1 37-537): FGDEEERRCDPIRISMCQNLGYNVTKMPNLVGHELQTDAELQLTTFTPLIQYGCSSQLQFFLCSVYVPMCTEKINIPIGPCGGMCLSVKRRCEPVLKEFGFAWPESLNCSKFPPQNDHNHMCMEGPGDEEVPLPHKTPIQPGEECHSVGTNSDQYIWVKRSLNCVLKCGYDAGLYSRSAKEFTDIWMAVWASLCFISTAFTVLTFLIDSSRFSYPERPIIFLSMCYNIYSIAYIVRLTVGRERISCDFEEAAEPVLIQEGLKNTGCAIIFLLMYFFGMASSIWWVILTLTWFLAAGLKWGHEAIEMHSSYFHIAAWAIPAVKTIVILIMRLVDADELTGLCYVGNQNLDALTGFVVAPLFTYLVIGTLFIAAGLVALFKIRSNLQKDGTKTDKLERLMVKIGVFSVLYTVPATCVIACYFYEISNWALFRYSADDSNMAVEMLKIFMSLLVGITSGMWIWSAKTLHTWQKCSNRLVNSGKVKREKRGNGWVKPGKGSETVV

348 GPCRs [2] = biological target: T2, 348 GPCRs (Homo sapiens, UniProt Q9HBX9); details: RXFP1 (relaxin/insulin-like family peptide receptor 1); 10µM, Favipiravir 100μM
T2 construct: expressed in transfected cells; host or cells: HEK293A
T2 sequence (Q9HBX9 1-757): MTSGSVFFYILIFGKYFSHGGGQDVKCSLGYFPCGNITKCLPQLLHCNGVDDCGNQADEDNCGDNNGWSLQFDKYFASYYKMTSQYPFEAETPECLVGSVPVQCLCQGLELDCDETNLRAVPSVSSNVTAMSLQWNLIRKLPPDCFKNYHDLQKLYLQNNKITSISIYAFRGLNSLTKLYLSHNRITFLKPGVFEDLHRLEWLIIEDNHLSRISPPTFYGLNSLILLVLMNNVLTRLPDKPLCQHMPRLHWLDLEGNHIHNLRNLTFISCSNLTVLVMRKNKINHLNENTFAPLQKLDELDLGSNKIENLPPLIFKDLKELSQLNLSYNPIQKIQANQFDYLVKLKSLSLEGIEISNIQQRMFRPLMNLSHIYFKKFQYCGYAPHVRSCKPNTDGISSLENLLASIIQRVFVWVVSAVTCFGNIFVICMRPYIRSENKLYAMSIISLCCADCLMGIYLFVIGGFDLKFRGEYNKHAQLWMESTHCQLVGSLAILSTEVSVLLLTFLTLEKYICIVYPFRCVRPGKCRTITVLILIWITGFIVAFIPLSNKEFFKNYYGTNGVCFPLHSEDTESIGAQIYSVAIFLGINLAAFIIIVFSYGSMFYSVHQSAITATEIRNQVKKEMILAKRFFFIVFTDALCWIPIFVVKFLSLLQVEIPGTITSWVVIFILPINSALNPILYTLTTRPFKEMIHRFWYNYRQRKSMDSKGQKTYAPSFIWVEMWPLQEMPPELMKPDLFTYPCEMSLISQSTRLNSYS

348 GPCRs [3] = biological target: T3, 348 GPCRs (Homo sapiens, UniProt Q8N6U8); details: 10µM, Favipiravir 100μM
T3 construct: expressed in transfected cells; host or cells: HEK293A

348 GPCRs [4] = biological target: T4, 348 GPCRs (Homo sapiens, UniProt P50406); details: 10µM, Favipiravir 100μM
T4 construct: expressed in transfected cells; host or cells: HEK293A

348 GPCRs [5] = biological target: T5, 348 GPCRs (Homo sapiens, UniProt P51810); details: 10µM, Favipiravir 100μM
T5 construct: expressed in transfected cells; host or cells: HEK293A

348 GPCRs [6] = biological target: T6, 348 GPCRs (Homo sapiens, UniProt P22888); details: 10µM, Favipiravir 100μM
T6 construct: expressed in transfected cells; host or cells: HEK293A

348 GPCRs [7] = biological target: T7, 348 GPCRs (Homo sapiens, UniProt Q9NYV9); details: 10µM, Favipiravir 100μM
T7 construct: expressed in transfected cells; host or cells: HEK293A
T7 sequence (Q9NYV9 1-303): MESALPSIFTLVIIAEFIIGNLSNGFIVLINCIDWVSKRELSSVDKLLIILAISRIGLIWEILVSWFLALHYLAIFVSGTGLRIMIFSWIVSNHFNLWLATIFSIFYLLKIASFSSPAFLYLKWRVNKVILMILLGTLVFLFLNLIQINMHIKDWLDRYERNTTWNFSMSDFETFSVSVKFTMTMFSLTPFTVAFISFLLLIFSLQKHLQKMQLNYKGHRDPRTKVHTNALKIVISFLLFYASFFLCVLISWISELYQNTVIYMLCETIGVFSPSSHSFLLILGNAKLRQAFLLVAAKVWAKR

348 GPCRs [8] = biological target: T8, 348 GPCRs (Homo sapiens, UniProt P28335); details: 10µM, Favipiravir 100μM
T8 sequence (P28335 33-458): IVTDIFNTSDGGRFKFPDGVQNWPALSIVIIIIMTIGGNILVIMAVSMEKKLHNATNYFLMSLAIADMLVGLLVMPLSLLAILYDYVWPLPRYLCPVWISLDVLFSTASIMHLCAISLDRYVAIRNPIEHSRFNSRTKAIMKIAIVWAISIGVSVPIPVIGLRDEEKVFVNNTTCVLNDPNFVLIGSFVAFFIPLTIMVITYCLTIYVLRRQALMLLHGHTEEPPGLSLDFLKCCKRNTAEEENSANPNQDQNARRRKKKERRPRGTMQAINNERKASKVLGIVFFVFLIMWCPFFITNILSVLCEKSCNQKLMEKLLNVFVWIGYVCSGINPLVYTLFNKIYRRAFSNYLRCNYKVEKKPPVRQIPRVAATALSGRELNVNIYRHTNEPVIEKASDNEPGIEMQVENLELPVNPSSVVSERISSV

[9] = FZD4 (frizzled family receptor 4), read-out: % GPCR activation compared to TPA
[10] = GPR161 (G protein-coupled receptor 161), read-out: % GPCR activation compared to TPA
[11] = 5-HT6 (5-hydroxytryptamine receptor 6), read-out: % GPCR activation compared to TPA
[12] = GPR143 (G Protein-Coupled Receptor 143), read-out: % GPCR activation compared to TPA
[13] = LHCGR (luteinizing hormone/choriogonadotropin receptor), read-out: % GPCR activation compared to TPA
[14] = TAS2R13 (taste receptor, type 2, member 13), read-out: % GPCR activation compared to TPA
[15] = 5-HT2C (5-hydroxytryptamine receptor 2C), read-out: % GPCR activation compared to TPA
[16] = read-out: % GPCR activation compared to TPA, FZD4 (frizzled family receptor 4)
[17] = read-out: % GPCR activation compared to TPA, GPR161 (G protein-coupled receptor 161)
[18] = read-out: % GPCR activation compared to TPA, 5-HT6 (5-hydroxytryptamine receptor 6)
[19] = read-out: % GPCR activation compared to TPA, GPR143 (G Protein-Coupled Receptor 143)
[20] = read-out: % GPCR activation compared to TPA, LHCGR (luteinizing hormone/choriogonadotropin receptor)
[21] = read-out: % GPCR activation compared to TPA, TAS2R13 (taste receptor, type 2, member 13)
[22] = read-out: % GPCR activation compared to TPA, 5-HT2C (5-hydroxytryptamine receptor 2C)

T6 sequence (P22888 27-699): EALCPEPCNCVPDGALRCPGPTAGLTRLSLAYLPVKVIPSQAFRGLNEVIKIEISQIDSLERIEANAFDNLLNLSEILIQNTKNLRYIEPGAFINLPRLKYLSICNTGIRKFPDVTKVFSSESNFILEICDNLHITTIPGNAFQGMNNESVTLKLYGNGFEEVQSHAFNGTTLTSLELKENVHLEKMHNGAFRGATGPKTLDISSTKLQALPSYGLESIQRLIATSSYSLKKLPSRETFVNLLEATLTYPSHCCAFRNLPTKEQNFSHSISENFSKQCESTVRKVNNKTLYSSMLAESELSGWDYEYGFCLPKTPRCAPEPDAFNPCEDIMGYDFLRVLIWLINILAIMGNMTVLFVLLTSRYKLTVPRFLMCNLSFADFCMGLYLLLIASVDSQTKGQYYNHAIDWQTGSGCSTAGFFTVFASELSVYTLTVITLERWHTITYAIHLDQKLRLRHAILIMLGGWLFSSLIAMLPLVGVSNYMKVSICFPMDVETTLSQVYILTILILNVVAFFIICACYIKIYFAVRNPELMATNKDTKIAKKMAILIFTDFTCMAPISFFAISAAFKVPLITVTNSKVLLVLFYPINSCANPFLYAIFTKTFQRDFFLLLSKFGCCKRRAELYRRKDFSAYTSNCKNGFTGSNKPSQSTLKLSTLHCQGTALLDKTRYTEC
T4 sequence (P50406 whole entry): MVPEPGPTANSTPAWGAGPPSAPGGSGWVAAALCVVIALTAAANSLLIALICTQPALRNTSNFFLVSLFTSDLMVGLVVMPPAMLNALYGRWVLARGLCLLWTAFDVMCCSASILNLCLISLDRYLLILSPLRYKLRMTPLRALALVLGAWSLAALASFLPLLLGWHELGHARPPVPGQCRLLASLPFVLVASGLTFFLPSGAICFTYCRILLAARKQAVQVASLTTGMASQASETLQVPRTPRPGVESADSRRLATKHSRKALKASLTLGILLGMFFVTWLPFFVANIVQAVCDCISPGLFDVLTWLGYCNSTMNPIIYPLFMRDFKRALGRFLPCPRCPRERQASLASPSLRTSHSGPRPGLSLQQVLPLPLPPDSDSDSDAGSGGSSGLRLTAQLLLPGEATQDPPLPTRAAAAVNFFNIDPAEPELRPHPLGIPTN
T5 sequence (P51810 whole entry): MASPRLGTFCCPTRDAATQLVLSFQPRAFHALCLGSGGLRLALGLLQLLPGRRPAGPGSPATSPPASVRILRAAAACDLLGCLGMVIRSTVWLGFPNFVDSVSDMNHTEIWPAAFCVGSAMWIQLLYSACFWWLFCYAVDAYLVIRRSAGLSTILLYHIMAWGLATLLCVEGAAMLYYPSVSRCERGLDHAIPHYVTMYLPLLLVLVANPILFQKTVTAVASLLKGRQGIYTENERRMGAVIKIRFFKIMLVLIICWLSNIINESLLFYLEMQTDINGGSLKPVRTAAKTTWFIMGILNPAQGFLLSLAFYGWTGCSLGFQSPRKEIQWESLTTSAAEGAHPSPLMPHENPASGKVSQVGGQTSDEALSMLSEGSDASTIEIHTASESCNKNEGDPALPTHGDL
T3 sequence (Q8N6U8 whole entry): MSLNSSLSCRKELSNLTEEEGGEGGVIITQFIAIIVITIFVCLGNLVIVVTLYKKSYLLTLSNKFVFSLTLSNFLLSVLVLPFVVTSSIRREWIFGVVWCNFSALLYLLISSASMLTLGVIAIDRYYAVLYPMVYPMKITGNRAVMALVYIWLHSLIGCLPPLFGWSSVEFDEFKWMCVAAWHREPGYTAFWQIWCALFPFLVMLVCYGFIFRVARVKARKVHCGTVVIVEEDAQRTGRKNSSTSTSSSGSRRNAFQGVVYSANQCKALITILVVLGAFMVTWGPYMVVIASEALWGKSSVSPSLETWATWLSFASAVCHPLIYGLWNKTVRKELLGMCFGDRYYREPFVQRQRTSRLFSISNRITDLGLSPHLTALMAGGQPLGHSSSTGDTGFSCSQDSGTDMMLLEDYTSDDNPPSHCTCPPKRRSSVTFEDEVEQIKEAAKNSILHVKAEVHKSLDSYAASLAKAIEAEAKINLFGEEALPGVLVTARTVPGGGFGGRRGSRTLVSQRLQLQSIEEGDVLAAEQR

activation at 100 µM (348 GPCRs [1]; [9]) [%]	% GPCR activation compared to TPA (348 GPCRs [2]) [%]	activation at 10 µM (348 GPCRs [3]; [10]) [%]	activation at 100 µM (348 GPCRs [4]; [11]) [%]	activation at 100 µM (348 GPCRs [5]; [12]) [%]	activation at 100 µM (348 GPCRs [6]; [13]) [%]	activation at 100 µM (348 GPCRs [7]; [14]) [%]	activation at 100 µM (348 GPCRs [8]; [15]) [%]	SMILES	activation at 100 µM (348 GPCRs [1]; [16]) [%]	activation at 10 µM (348 GPCRs [3]; [17]) [%]	activation at 100 µM (348 GPCRs [4]; [18]) [%]	activation at 100 µM (348 GPCRs [5]; [19]) [%]	activation at 100 µM (348 GPCRs [6]; [20]) [%]	activation at 100 µM (348 GPCRs [7]; [21]) [%]	activation at 100 µM (348 GPCRs [8]; [22]) [%]
4.3	-1.093	-1.6	-0.422	-1.65	0.261	0.783	0.017	N#C[C@@]1(c2ccc3c(N)ncnn23)O[C@H](CO)[C@@H](O)[C@H]1O [GS441524]							
1.08	-0.9572	-3.46	-0.864	-2.51	-0.797	-0.971	-2.97	CC(C)C(=O)OC[C@H]1O[C@@H](n2ccc(NO)nc2=O)[C@H](O)[C@@H]1O [molnupiravir]							

Second part, the compound before the results:

SMILES	activation at 100 µM (348 GPCRs [1]; [9]) [%]	% GPCR activation compared to TPA (348 GPCRs [2]) [%]	activation at 10 µM (348 GPCRs [3]; [10]) [%]	activation at 100 µM (348 GPCRs [4]; [11]) [%]	activation at 100 µM (348 GPCRs [5]; [12]) [%]	activation at 100 µM (348 GPCRs [6]; [13]) [%]	activation at 100 µM (348 GPCRs [7]; [14]) [%]	activation at 100 µM (348 GPCRs [8]; [15]) [%]	activation at 100 µM (348 GPCRs [1]; [16]) [%]	activation at 10 µM (348 GPCRs [3]; [17]) [%]	activation at 100 µM (348 GPCRs [4]; [18]) [%]	activation at 100 µM (348 GPCRs [5]; [19]) [%]	activation at 100 µM (348 GPCRs [6]; [20]) [%]	activation at 100 µM (348 GPCRs [7]; [21]) [%]	activation at 100 µM (348 GPCRs [8]; [22]) [%]
NC(=O)c1nc(F)cnc1O [favipiravir, 6-fluoro-3-hydroxy-2-pyrazinecarboxamide]	0.755	0.2738	-0.46	-1.66	-1.86	0.315	-1.06	3.15							
CCC(CC)COC(=O)[C@H](C)N[P@](=O)(OC[C@H]1O[C@@](C#N)(c2ccc3c(N)ncnn23)[C@H](O)[C@@H]1O)Oc1ccccc1 [remdesivir]		-0.5639							3.99	-2.6	0.785	-0.638	0.234	1.1	-0.0017
CC(C)OC(=O)[C@H](C)N[P@](=O)(OC[C@H]1O[C@@H](n2ccc(=O)[nH]c2=O)[C@](C)(F)[C@@H]1O)Oc1ccccc1 [sofosbuvir]		0.4557							-0.222	-5.59	-1.12	-1.1	1.92	-2.09	-0.973
